The test concerns the target Cdk4/CyclinD1 (Homo sapiens (Human), UniProt P11802). The test can be described thus: Cdk4 kinase inhibition assay with recombinant Cdk4/CyclinD1, Rb substrate, [33P]-ATP filter plate. The class given is biochemical. Particulars: 25 μM ATP, read-out: Cdk 4 IC50. As to the method:
The Cdk4 and Cdk6 inhibitory activity of the compounds is measured with a kinase inhibition assay using recombinant Cdk4/CyclinD1 or Cdk6/CyclinD3 protein complexes. The protein substrate used in the assay is the retinoblastoma protein (Rb). The kinase reactions are carried out in a 96-well filter plate (MSDV N6B50, Millipore). […] The mixture is incubated at room temperature for 1 hour and the proteins precipitated with an equal volume of 20% TCA. The plates are washed with 10% TCA according to the manufacturer's instruction and dried at room temperature. The amount of the phosphorylated Rb is determined with a TopCount (PerkinElmer). The IC50 of a compound is determined by nonlinear regression curve fitting using software program Prism 5 (GraphPad Software).
Cdk4/CyclinD1, sequence (P11802 whole entry): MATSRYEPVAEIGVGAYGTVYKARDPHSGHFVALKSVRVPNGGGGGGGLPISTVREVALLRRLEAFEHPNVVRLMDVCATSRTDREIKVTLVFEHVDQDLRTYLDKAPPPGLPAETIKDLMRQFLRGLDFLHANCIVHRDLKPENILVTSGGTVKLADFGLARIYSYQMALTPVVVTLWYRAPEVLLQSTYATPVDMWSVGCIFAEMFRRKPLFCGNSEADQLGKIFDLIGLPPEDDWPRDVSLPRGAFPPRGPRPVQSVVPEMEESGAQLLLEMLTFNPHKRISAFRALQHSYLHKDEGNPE
Cdk4/CyclinD1, sequence (P24385 whole entry partner): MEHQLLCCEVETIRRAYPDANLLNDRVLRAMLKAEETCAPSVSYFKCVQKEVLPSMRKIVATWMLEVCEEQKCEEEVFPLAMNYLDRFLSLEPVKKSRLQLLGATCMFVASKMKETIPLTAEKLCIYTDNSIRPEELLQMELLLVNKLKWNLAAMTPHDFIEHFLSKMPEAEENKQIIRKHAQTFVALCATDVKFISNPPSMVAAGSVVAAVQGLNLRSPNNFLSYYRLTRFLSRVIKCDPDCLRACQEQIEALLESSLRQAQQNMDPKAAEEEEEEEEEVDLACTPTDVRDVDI
Take `C[C@H]1CN(c2ccc(Nc3ncc4c5ccnc(F)c5n(C5CCCC5)c4n3)nc2)CCN1` [Example 179, 9-cyclopentyl-8-fluoro-N-(5-((3S)-3-methyl-1-piperazinyl)-2-pyridinyl)-9H-pyrido-[4′,3′:4,5]pyrrolo[2,3-d]pyrimidin-2-amine]: the IC50 – broadly, the concentration that inhibits the measured activity by half – amounted to 3.4 nM.
With `C[C@@H]1CNCCN1c1ccc(Nc2ncc3c4ccnc(F)c4n(C4CCCC4)c3n2)nc1` [Example 180, 9-Cyclopentyl-8-fluoro-N-(5-((2R)-2-methyl-1-piperazinyl)-2-pyridinyl)-9H-pyrido[4′,3′:4,5]pyrrolo[2,3-d]pyrimidin-2-amine] the figure was 2 nM; with `OCCN1CCN(c2ccc(Nc3ncc4c5ccncc5n(C5CCCC5)c4n3)nc2)CC1` [Example 191, 2-(4-(6-((9-Cyclopentyl-9H-pyrido[4′,3′:4,5]pyrrolo[2,3-d]pyrimidin-2-yl)amino)-3-pyridinyl)-1-piperazinyl)ethanol], 4.4 nM.
The same measure for `CN(C)CC(=O)N1CCN(c2ccc(Nc3ncc4c5ccnc(F)c5n(C5CCCC5)c4n3)nc2)CC1` [Example 193, 9-Cyclopentyl-N-(5-(4-((dimethylamino)acetyl)-1-piperazinyl)-2-pyridinyl)-8-fluoro-9H-pyrido[4′,3′:4,5]pyrrolo[2,3-d]pyrimidin-2-amine]: 68 nM; for `CC(=O)OCC(=O)N1CCN(c2ccc(Nc3ncc4c5ccnc(F)c5n(C5CCCC5)c4n3)nc2)CC1` [Example 194, 2-(4-(6-((9-cyclopentyl-8-fluoro-9H-pyrido[4′,3′:4,5]pyrrolo[2,3-d]pyrimidin-2-yl)amino)-3-pyridinyl)-1-piperazinyl)-2-oxoethyl acetate]: 600 nM.
The same measure for `CN(CCO)C1CCN(c2ccc(Nc3ncc4c5ccnc(F)c5n(C5CCCC5)c4n3)nc2)CC1` [Example 195, 2-((1-(6-((9-Cyclopentyl-8-fluoro-9H-pyrido[4′,3′:4,5]pyrrolo[2,3-d]pyrimidin-2-yl)amino)-3-pyridinyl)-4-piperidinyl)(methyl)amino)ethanol]: 13 nM.
For the molecule `OC[C@H]1CN(c2ccc(Nc3ncc4c5ccnc(F)c5n(C5CCCC5)c4n3)nc2)CCN1` [Example 196, ((2R)-4-(6-((9-Cyclopentyl-8-fluoro-9H-pyrido[4′,3′:4,5]pyrrolo[2,3-d]pyrimidin-2-yl)amino)-3-pyridinyl)-2-piperazinyl)methanol], the IC50 turned out to be 2.4 nM.
The same measure for `OC[C@H]1CN(c2ccc(Nc3ncc4c5ccncc5n(C5CCCC5)c4n3)nc2)CCN1` [Example 197, ((2R)-4-(6-((9-Cyclopentyl-9H-pyrido[4′,3′:4,5]pyrrolo[2,3-d]pyrimidin-2-yl)amino)-3-pyridinyl)-2-piperazinyl)methanol]: 4.2 nM.
With `OC[C@@H]1CN(c2ccc(Nc3ncc4c5ccncc5n(C5CCCC5)c4n3)nc2)CCN1` [Example 198, ((2S)-4-(6-((9-cyclopentyl-9H-pyrido[4′,3′:4,5]pyrrolo[2,3-d]pyrimidin-2-yl)amino)-3-pyridinyl)-2-piperazinyl)methanol] the figure was 4.6 nM.
The same measure for `OC[C@@H]1CN(c2ccc(Nc3ncc4c5ccnc(F)c5n(C5CCCC5)c4n3)nc2)CCN1` [Example 199, ((2S)-4-(6-((9-cyclopentyl-8-fluoro-9H-pyrido[4′,3′:4,5]pyrrolo[2,3-d]pyrimidin-2-yl)amino)-3-pyridinyl)-2-piperazinyl)methanol]: 4.5 nM; for `c1cc2c3cnc(Nc4ccc(N5CCC(N6CCCC6)CC5)cn4)nc3n(C3CCCC3)c2nn1` [Example 201, 9-cyclopentyl-N-(5-(4-(1-pyrrolidinyl)-1-piperidinyl)-2-pyridinyl)-9H-pyrimido[5′,4′:4,5]pyrrolo[2,3-c]pyridazin-7-amine]: 26 nM.
For the molecule `CN(C)C1CCN(c2ccc(Nc3ncc4c5ccncc5n(C5CCC(C)(C)CC5)c4n3)cn2)CC1` [Example 205, N-(6-(4-(dimethylamino)-1-piperidinyl)-3-pyridinyl)-9-(4,4-dimethylcyclohexyl)-9H-pyrido[4′,3′:4,5]pyrrolo[2,3-d]pyrimidin-2-amine], the IC50 worked out at 2.6 nM.
Consider `CC1(C)CCC(n2c3cnccc3c3cnc(Nc4ccc(N5CCC(N6CCCC6)CC5)cn4)nc32)CC1` [Example 206, 9-(4,4-dimethylcyclohexyl)-N-(5-(4-(1-pyrrolidinyl)-1-piperidinyl)-2-pyridinyl)-9H-pyrido[4′,3′:4,5]pyrrolo[2,3-d]pyrimidin-2-amine], for which the IC50 was found to be 14 nM.
With `COc1nccc2c3cnc(Nc4ccc(N5CCNCC5)cn4)nc3n(C3CCC(C)(C)CC3)c12` [Example 207, 9-(4,4-dimethylcyclohexyl)-8-methoxy-N-(5-(1-piperazinyl)-2-pyridinyl)-9H-pyrido[4′,3′:4,5]pyrrolo[2,3-d]pyrimidin-2-amine] the figure was 10 nM; with `CC1(C)CCC(n2c3nc(Nc4ccc(N5CCNCC5)cn4)ncc3c3ccnc(O)c32)CC1` [Example 208, 9-(4,4-dimethylcyclohexyl)-2-((5-(1-piperazinyl)-2-pyridinyl)amino)-9H-pyrido[4′,3′:4,5]pyrrolo[2,3-d]pyrimidin-8-ol], 1.8 nM.
With `COc1nccc2c3cnc(Nc4ccc(N5CCC(N6CCCC6)CC5)cn4)nc3n(C3CCC(C)(C)CC3)c12` [Example 209, 9-(4,4-dimethylcyclohexyl)-8-methoxy-N-(5-(4-(1-pyrrolidinyl)-1-piperidinyl)-2-pyridinyl)-9H-pyrido[4′,3′:4,5]pyrrolo[2,3-d]pyrimidin-2-amine] the figure was 11 nM; with `CC1(C)CCC(n2c3nc(Nc4ccc(N5CCC(N6CCCC6)CC5)cn4)ncc3c3ccnc(O)c32)CC1` [Example 210, 9-(4,4-dimethylcyclohexyl)-2-((5-(4-(1-pyrrolidinyl)-1-piperidinyl)-2-pyridinyl)amino)-9H-pyrido[4′,3′:4,5]pyrrolo[2,3-d]pyrimidin-8-ol], 6.6 nM.
The same measure for `CN(C)C1CCN(c2ccc(Nc3ncc4c5ccnc(O)c5n(C5CCC(C)(C)CC5)c4n3)nn2)CC1` [Example 211, 2-((6-(4-(dimethylamino)-1-piperidinyl)-3-pyridazinyl)amino)-9-(4,4-dimethylcyclohexyl)-9H-pyrido[4′,3′:4,5]pyrrolo[2,3-d]pyrimidin-8-ol]: 9.8 nM.
For `O=C(c1ccc(Nc2ncc3c4ccnc(F)c4n(C4CCCC4)c3n2)nc1)N1CCNCC1` [Example 222, 9-cyclopentyl-8-fluoro-N-(5-(1-piperazinylcarbonyl)-2-pyridinyl)-9H-pyrido[4′,3′:4,5]pyrrolo[2,3-d]pyrimidin-2-amine], the IC50 amounted to 6 nM.
With `O=C(c1ccc(Nc2ncc3c4ccnc(O)c4n(C4CCCC4)c3n2)nc1)N1CCNCC1` [Example 223, 9-cyclopentyl-2-((5-(1-piperazinylcarbonyl)-2-pyridinyl)amino)-9H-pyrido[4′,3′:4,5]pyrrolo[2,3-d]pyrimidin-8-ol] the figure was 13 nM; with `c1cc2c3cnc(Nc4ccc(N5CCC6(CCCN6)CC5)cn4)nc3n(C3CCCC3)c2cn1` [Example 231, 9-cyclopentyl-N-(5-(1,8-diazaspiro[45]dec-8-yl)-2-pyridinyl)-9H-pyrido[4′,3′:4,5]pyrrolo[2,3-d]pyrimidin-2-amine], 3.3 nM.
For `c1cc2c3cnc(Nc4ccc(N5CCC6(CCCN6)CC5)nn4)nc3n(C3CCCC3)c2cn1` [Example 232, 9-cyclopentyl-N-(6-(1,8-diazaspiro[45]dec-8-yl)-3-pyridazinyl)-9H-pyrido[4′,3′:4,5]pyrrolo[2,3-d]pyrimidin-2-amine], the IC50 was 7.2 nM.
For `O=C(O)Cc1ccc(Nc2ncc3c4ccncc4n(C4CCCC4)c3n2)nc1` [Example 241, (6-((9-cyclopentyl-9H-pyrido[4′,3′:4,5]pyrrolo[2,3-d]pyrimidin-2-yl)amino)-3-pyridinyl)acetic acid], the IC50 turned out to be 177 nM.
The same measure for `CN(C)C1CCN(C(=O)Cc2ccc(Nc3ncc4c5ccncc5n(C5CCCC5)c4n3)nc2)CC1` [Example 243, 9-cyclopentyl-N-(5-(2-(4-(dimethylamino)-1-piperidinyl)-2-oxoethyl)-2-pyridinyl)-9H-pyrido[4′,3′:4,5]pyrrolo[2,3-d]pyrimidin-2-amine]: 7 nM.
With `O=C(Cc1ccc(Nc2ncc3c4ccncc4n(C4CCCC4)c3n2)nc1)N1CCOCC1` [Example 244, 9-cyclopentyl-N-(5-(2-(4-morpholinyl)-2-oxoethyl)-2-pyridinyl)-9H-pyrido[4′,3′:4,5]pyrrolo[2,3-d]pyrimidin-2-amine] the figure was 11 nM.
Consider `O=C(Cc1ccc(Nc2ncc3c4ccncc4n(C4CCCC4)c3n2)nc1)N1CCNCC1` [Example 245, 9-cyclopentyl-N-(5-(2-oxo-2-(1-piperazinyl)ethyl)-2-pyridinyl)-9H-pyrido[4′,3′:4,5]pyrrolo[2,3-d]pyrimidin-2-amine], for which the IC50 is 7.4 nM.
Turning to `c1cc2c3cnc(Nc4ccc(N5CCNC6(CCC6)C5)nn4)nc3n(C3CCCC3)c2cn1` [Example 246, 9-cyclopentyl-N-(6-(5,8-diazaspiro[3.5]non-8-yl)-3-pyridazinyl)-9H-pyrido[4′,3′:4,5]pyrrolo[2,3-d]pyrimidin-2-amine], the IC50 came out at 70 nM.
With `c1cc2c3cnc(Nc4ccc(N5CCNC6(CCCC6)C5)nn4)nc3n(C3CCCC3)c2cn1` [Example 247, 9-cyclopentyl-N-(6-(6,9-diazaspiro[4.5]dec-9-yl)-3-pyridazinyl)-9H-pyrido[4′,3′:4,5]pyrrolo[2,3-d]pyrimidin-2-amine] the figure was 3.4 nM; with `c1cc2c3cnc(Nc4ccc(N5CCC6(CC5)COCCN6)nn4)nc3n(C3CCCC3)c2cn1` [Example 249, 9-cyclopentyl-N-(6-(4-oxa-1,9-diazaspiro[5.5]undec-9-yl)-3-pyridazinyl)-9H-pyrido[4′,3″:4,5]pyrrolo[2,3-d]pyrimidin-2-amine], 4.4 nM.

Source of the values: patent US8841312B2, “Fused pyridine, pyrimidine and triazine compounds as cell cycle inhibitors” (Amgen Inc., priority 2007, dated 2014).
